Each compound was assayed against melatonin receptor (assay: Inhibition of 2-[^125 I]iodomelatonin binding in forebrain homogenate of 7-day-old chicken). Details: 80 pM 2-[^125 I]iodomelatonin, 90 minutes at 25° C., 7-day-old chicken forebrain homogenate, log-probit analysis; read-out: IC50, action of inhibiting 2-[^125 I]iodomelatonin binding.
Parameters: species or system chicken (white leghorn)
Description: The farebrains of 7-day-old chicken (white leghorn) were homogenized with ice-cold assay buffer (50 mM Tris-HCl, pH 7.7 at 25° C.) and centrifuged at 44,000×g for 10 minutes at 4° C. The pellet was washed once with the same buffer and stored at -30° C. until use. For the assay, the frozen tissue pellet was thawed and homogenized with the assay buffer to make a protein concentration of 0.3-0.4 mg/ml. […] The reaction was terminated by adding 3 ml of ice-cold assay buffer immediately followed by vacuum filtration on Whatman GF/B which was further washed twice with 3 ml of ice-cold assay buffer. The radioactivity on the filter was determined by means of γ-counter.

Row | IC50 [pM] | SMILES
1 | 720 | COc1ccc2c(c1)/C(=C/CNC(=O)C(F)(F)F)CCC2 [compound 33]
2 | 950 | CC(=O)NCCC1CCCc2ccc(O)cc21 (stereo not drawn) [compound 35]
3 | 700 | COc1ccc2c(c1)[C@H](CCNC(C)=O)CC2 [compound 66]

Source: US6235789A, “Benzocycloalkene compounds, their production and use” (Takeda Chemical Industries, Ltd., priority 1994, dated 2001)
